These are literature values, as cited in article PMC12737022, “Evaluations of Sex Differences in Dosimetry in Rats Following Perfluorohexanesulfonamide (PFHxSA) Oral Exposure” (Toxics, 2025).

On the set-up of data set [1]: method as in PMID 31078680. The following applies: cited from earlier work; for Liver partitioning values: male rats.
Details of data set [2]: method as in PMID 40710967. Particulars: SD rats following PFHxSA administration; cited from earlier work.
Details of data set [3]: method as in PMID 37756184. The following applies: bariatric surgery patients; cited from earlier work.

For `O=C(O)C(F)(F)C(F)(F)C(F)(F)F` [PFBA], the “Liver partitioning summary values” in data set [1] (across both sexes) was 0.16–0.44. On to `O=C(O)C1OC(NS(=O)(=O)C(F)(F)C(F)(F)C(F)(F)C(F)(F)C(F)(F)C(F)(F)F)C(O)C(O)C1O` (stereo not drawn) [PFHxSA-glucuronide], for which, in data set [2], the “Share of the PFAS detected following dosing” value was “less than 3%”.

As to `O=C(O)C(F)(F)C(F)(F)C(F)(F)C(F)(F)C(F)(F)C(F)(F)C(F)(F)F` [PFOA, perfluorooctanoic acid, reference compound], the “Human liver/plasma partitioning Kp” value in data set [3] is on record as 0.26. In addition, the Liver partitioning values in data set [1] is on record as 1.5 to 10.9. As for `O=S(=O)(O)C(F)(F)C(F)(F)C(F)(F)C(F)(F)C(F)(F)C(F)(F)C(F)(F)C(F)(F)F` [PFOS, perflurooctanesulfonic acid], in data set [1], the Liver partitioning values is recorded as 1.5 to 10.9.

As to `O=S(O)C(F)(F)C(F)(F)C(F)(F)C(F)(F)C(F)(F)C(F)(F)F` [perfluorohexanesulfinic acid], the “Share of the PFAS detected following dosing” value in data set [2] is reported as “less than 3%”.
